Results taken from patent US11040981B2, “Pyrrolotriazine compounds and methods of inhibiting TAM kinases” (Syros Pharmaceuticals, Inc., priority 2017, dated 2021).

What was measured:
FLT3 = target: T1, FLT3 (Homo sapiens, UniProt P36888); experiment: TR-FRET kinase activity assay, FLT3; format: biochemical; settings: ATP at Km, 60 minutes
T1 sequence (P36888 27-993): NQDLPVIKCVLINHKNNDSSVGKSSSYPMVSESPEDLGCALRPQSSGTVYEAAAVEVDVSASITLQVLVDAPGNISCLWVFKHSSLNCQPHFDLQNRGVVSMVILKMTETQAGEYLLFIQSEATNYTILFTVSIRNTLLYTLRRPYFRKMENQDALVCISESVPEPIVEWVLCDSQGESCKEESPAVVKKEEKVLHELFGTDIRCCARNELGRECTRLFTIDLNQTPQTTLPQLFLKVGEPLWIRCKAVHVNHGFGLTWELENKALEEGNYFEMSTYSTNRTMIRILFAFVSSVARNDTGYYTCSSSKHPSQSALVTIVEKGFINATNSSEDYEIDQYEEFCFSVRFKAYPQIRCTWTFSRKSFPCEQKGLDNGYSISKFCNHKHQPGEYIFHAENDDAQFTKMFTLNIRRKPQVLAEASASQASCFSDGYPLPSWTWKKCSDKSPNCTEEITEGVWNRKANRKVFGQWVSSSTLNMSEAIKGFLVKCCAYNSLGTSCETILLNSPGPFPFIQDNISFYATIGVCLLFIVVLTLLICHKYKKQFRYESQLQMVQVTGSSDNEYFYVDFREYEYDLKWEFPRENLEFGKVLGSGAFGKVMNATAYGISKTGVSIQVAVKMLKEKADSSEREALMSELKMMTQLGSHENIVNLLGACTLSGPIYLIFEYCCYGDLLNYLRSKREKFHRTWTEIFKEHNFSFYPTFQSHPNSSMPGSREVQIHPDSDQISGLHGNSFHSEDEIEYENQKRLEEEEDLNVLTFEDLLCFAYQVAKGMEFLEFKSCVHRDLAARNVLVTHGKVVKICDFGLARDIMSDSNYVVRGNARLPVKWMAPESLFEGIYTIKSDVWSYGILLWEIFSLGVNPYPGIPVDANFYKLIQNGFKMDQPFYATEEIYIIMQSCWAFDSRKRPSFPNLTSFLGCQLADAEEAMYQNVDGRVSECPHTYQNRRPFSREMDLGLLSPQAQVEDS
How it was run: (§1)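 Recombinant human kinases, fluorescent peptide substrate, ATP at Km; 1 h RT, pH 7.5. EDTA-quenched, Eu antibody added, TR-FRET read; IC50 determined.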

TYRO3 = target: T2, TYRO3 (Homo sapiens, UniProt Q06418); experiment: TR-FRET kinase activity assay, TYRO3; format: biochemical; settings: ATP at Km, 60 minutes
T2 sequence (Q06418 41-890): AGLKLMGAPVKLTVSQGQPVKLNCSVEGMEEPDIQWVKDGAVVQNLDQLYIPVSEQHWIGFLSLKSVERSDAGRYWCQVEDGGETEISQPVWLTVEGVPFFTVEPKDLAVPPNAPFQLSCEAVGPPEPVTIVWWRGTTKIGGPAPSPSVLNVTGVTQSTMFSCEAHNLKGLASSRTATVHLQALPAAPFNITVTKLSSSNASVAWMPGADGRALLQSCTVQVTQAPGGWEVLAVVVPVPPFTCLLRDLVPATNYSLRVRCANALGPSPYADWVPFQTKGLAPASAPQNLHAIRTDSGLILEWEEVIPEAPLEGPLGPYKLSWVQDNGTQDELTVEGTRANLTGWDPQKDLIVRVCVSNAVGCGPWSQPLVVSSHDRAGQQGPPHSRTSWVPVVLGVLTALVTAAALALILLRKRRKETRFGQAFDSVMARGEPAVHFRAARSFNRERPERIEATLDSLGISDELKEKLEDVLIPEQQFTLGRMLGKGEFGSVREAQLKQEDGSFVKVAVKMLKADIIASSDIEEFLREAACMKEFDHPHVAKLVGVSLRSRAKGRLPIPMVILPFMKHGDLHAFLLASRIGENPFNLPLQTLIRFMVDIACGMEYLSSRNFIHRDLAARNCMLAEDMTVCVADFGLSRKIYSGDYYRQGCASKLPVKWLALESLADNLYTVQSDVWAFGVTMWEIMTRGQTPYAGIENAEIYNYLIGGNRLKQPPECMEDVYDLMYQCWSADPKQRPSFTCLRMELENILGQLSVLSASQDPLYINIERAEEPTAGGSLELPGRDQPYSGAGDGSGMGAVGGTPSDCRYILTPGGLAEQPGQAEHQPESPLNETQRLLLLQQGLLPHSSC
How it was run: as §1

SMILES | IC50 (FLT3) [µM] | IC50 (TYRO3) [µM]
C[C@@H](COC(F)F)Nc1ncc2c(-c3cnn(CCC#N)c3)cc([C@H]3CC[C@H](O)CC3)n2n1 [Compound 437] | ≤ 0.1 | ≤ 0.1
CCCCC[C@H](C)Nc1ncc2c([C@H]3CC[C@@H](C(=O)N4CCN(C)CC4)CC3)cc([C@H]3CC[C@H](O)CC3)n2n1 [Compound 127] | 0.1 to 1 | ≤ 0.1
COC[C@H](C)Nc1ncc2c(C3=C[C@H]4CC[C@@H](C3)N4)cc([C@H]3CC[C@H](O)CC3)n2n1 [Compound 467] | 1 to 10 | ≤ 0.1
COC[C@H](C)Nc1ncc2c(C3=C[C@H]4CCC(C3)N4C(C)=O)cc([C@H]3CC[C@H](O)CC3)n2n1 [Compound 468] | 0.1 to 1 | ≤ 0.1
CC[C@H](C)Nc1ncc2c(C3=CCOCC3)cc([C@H]3CC[C@H](O)CC3)n2n1 [Compound 128] | ≤ 0.1 | ≤ 0.1
COC[C@H](C)Nc1ncc2c(-c3ccnc(N4CCNCC4)c3)cc([C@H]3CC[C@H](O)CC3)n2n1 [Compound 434] | 0.1 to 1 | ≤ 0.1
COC[C@H](C)Nc1ncc2c(C3=C[C@H]4CC[C@@H](C3)N4CC(F)(F)F)cc([C@H]3CC[C@H](O)CC3)n2n1 [Compound 492] | 1 to 10 | ≤ 0.1
CC[C@H](C)Nc1ncc2c(C3CCOCC3)cc([C@H]3CC[C@H](O)CC3)n2n1 [Compound 129, (trans)-4-(2-((S)-sec-butylamino)-5-(tetrahydro-2H-pyran-4-yl)pyrrolo[2,1-f][1,2,4]triazin-7-yl)cyclohexanol] | 1 to 10 | ≤ 0.1
C[C@H](CC(F)(F)F)Nc1ncc2c(C3=C[C@H]4CC[C@@H](C3)N4C(=O)OC(C)(C)C)cc([C@H]3CC[C@H](O)CC3)n2n1 [Compound 456] | ≤ 0.1 | ≤ 0.1
COC[C@H](C)Nc1ncc2c(C3=C[C@H]4CC[C@@H](C3)N4C)cc([C@H]3CC[C@H](O)CC3)n2n1 [Compound 494] | 1 to 10 | ≤ 0.1
COC[C@H](C)Nc1ncc2c(-c3ccnc(N4CC5(COC5)C4)c3)cc([C@H]3CC[C@H](O)CC3)n2n1 [Compound 426] | 0.1 to 1 | ≤ 0.1
COC[C@H](C)Nc1ncc2c(C3=CCN(C(=O)OC(C)(C)C)CC3)cc([C@H]3CC[C@H](O)CC3)n2n1 [Compound 425] | 0.1 to 1 | ≤ 0.1

Continued, values first:

IC50 (FLT3) [µM] | IC50 (TYRO3) [µM] | SMILES
0.1 to 1 | ≤ 0.1 | COC[C@H](C)Nc1ncc2c(-c3cnn(CC4CCO4)c3)cc([C@H]3CC[C@H](O)CC3)n2n1 (stereo partly drawn) [Compound 439]
1 to 10 | ≤ 0.1 | COC[C@H](C)Nc1ncc2c(-c3cnn([C@@H]4CCN(C)C4=O)c3)cc([C@H]3CC[C@H](O)CC3)n2n1 [Compound 471]
0.1 to 1 | ≤ 0.1 | COC[C@H](C)Nc1ncc2c(-c3cnn([C@H]4CCN(C)C4=O)c3)cc([C@H]3CC[C@H](O)CC3)n2n1 [Compound 470]
1 to 10 | ≤ 0.1 | COC[C@H](C)Nc1ncc2c(C#CC(C)(C)C(=O)N3CCOCC3)cc([C@H]3CC[C@H](O)CC3)n2n1 [Compound 449]
1 to 10 | ≤ 0.1 | COC[C@H](C)Nc1ncc2c(-c3ccnc(N4Cc5nc(C)sc5C4)c3)cc([C@H]3CC[C@H](O)CC3)n2n1 [Compound 479, (trans)-4-(2-(((S)-1-methoxypropan-2-yl)amino)-5-(2-(2-methyl-4H-pyrrolo[3,4-d]thiazol-5(6H)-yl)pyridin-4-yl)pyrrolo[2,1-f][1,2,4]triazin-7-yl)cyclohexanol]
0.1 to 1 | ≤ 0.1 | COC[C@H](C)Nc1ncc2c(-c3cnn(C(C)(C)C(=O)N4CCOCC4)c3)cc(C3CCc4[nH]ncc4C3)n2n1 (stereo partly drawn) [Compound 488]
1 to 10 | ≤ 0.1 | COC[C@H](C)Nc1ncc2c(-c3cnn(C(C)(C)C(=O)N4CCC(C)(O)CC4)c3)cc([C@H]3CC[C@H](O)CC3)n2n1 [Compound 450]
≤ 0.1 | ≤ 0.1 | C[C@@H](CC(F)F)Nc1ncc2c(-c3ccc(S(C)(=O)=O)nc3)cc([C@H]3CC[C@H](O)CC3)n2n1 [Compound 489]
1 to 10 | ≤ 0.1 | COC[C@H](C)Nc1ncc2c(-c3conc3C)cc([C@H]3CC[C@H](O)CC3)n2n1 [Compound 508]
